“Also recorded” adds a separate entry of the source.

The subject of assay [1] is LRRK2^WT. Description: Western blot LRRK2 degradation in WT MEFs. Conditions: for LRRK2 degradation (in words): WT MEFs and LRRK2^G2019S MEFs. The format is cell-based, mouse. Background: Immunoblotting shows a protein as a band on a membrane.
Assay [2] deals with T1, LRRK2^WT (Mus musculus, UniProt Q5S006).
T1 construct: endogenous in cells; host or cells: primary wild-type mouse embryonic fibroblasts (MEFs)
The experiment in a line: Western blot LRRK2 degradation in WT MEFs. Conditions: for Dmax on WT MEFs / DC50 / Dmax: dose response; for Dmax: read-out: Dmax on WT MEFs. The format is cell-based.

For the next assay, the target named is T2, LRRK2^G2019S (Mus musculus, UniProt Q5S006, G2019S).
T2 construct: endogenous in cells; host or cells: LRRK2[G2019S] mouse embryonic fibroblasts (MEFs)
T2 sequence (Q5S006 whole entry G2019S): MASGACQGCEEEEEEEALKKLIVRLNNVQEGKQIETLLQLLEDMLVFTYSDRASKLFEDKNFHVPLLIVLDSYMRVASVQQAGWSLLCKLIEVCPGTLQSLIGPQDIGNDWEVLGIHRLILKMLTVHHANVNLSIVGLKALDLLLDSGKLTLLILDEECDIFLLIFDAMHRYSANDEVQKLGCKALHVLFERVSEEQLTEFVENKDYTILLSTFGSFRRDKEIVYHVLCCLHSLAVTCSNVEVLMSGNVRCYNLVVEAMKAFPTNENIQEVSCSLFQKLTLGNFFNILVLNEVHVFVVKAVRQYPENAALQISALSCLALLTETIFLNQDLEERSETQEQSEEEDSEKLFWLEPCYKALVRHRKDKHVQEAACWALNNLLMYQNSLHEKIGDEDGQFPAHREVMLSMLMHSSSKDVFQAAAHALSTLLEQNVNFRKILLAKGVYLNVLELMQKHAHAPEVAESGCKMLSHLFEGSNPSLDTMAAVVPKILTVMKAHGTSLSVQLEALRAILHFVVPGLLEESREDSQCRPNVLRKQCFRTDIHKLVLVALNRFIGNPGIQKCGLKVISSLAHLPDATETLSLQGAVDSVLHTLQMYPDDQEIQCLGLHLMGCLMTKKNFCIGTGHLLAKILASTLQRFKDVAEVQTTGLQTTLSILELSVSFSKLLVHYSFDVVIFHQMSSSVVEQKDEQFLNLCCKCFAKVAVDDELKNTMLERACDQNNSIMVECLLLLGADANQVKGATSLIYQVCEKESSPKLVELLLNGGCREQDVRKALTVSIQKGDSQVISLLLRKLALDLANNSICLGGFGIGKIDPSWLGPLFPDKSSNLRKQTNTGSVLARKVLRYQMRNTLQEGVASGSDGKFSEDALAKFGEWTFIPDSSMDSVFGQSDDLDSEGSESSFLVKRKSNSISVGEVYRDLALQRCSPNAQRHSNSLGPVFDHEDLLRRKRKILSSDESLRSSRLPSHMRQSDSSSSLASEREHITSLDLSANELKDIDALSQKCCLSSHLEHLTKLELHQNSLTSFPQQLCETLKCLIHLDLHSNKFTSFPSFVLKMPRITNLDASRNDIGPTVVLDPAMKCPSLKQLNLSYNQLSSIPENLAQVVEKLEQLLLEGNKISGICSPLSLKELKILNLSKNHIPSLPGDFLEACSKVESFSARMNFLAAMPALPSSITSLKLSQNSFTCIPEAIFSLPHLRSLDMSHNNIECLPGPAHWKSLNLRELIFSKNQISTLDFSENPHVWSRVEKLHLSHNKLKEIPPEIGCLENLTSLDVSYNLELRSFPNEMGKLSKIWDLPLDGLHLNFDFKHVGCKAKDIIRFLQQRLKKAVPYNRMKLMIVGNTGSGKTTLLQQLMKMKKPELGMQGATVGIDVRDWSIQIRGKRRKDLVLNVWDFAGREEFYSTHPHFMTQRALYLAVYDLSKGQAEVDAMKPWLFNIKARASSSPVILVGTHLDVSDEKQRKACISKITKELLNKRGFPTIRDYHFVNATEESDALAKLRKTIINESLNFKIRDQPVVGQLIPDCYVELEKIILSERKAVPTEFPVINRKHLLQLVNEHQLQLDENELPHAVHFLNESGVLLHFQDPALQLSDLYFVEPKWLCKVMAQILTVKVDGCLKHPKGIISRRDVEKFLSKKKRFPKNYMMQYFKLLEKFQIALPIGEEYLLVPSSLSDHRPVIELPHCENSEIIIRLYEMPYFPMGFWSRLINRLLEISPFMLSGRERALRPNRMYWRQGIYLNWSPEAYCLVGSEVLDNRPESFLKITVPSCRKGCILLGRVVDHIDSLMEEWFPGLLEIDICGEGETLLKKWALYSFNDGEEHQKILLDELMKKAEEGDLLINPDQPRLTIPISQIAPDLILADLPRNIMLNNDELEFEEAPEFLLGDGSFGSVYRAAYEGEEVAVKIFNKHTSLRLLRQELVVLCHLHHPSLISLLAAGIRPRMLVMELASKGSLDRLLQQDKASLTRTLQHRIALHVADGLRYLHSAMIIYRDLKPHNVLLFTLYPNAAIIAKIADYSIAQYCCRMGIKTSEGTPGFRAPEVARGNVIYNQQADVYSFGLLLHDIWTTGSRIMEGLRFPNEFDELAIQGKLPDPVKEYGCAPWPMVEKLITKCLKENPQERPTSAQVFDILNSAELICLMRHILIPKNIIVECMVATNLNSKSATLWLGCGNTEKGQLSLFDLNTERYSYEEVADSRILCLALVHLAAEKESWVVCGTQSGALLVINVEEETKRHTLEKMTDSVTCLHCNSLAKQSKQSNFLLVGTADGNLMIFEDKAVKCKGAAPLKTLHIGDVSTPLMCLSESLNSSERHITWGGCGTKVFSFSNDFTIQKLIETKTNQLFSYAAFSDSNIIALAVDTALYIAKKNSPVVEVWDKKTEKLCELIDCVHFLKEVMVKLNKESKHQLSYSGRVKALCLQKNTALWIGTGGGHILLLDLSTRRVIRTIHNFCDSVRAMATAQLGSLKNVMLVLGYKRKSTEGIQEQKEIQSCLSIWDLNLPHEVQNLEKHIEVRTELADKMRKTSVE
Description: Western blot LRRK2 degradation in LRRK2^G2019S MEFs. The class given is cell-based. To be noted: dose response.

T1 sequence (Q5S006 whole entry): as the sequence (Q5S006 whole entry G2019S) above, with S2019G counted along it

In the case of `CNc1nc(Nc2ccc(C(=O)N3CCN(CCOCCOCCSC(C)(C)[C@H](NC(=O)C4(F)CC4)C(=O)N4C[C@H](O)C[C@H]4C(=O)NCc4ccc(-c5scnc5C)cc4)CC3)cc2OC)ncc1Cl` [SD75, (2S,4R)-1-((R)-3-((2-(2-(2-(4-(4-((5-chloro-4-(methylamino)pyrimidin-2-yl)amino)-3-methoxybenzoyl)piperazin-1-yl)ethoxy)ethoxy)ethyl)thio)-2-(1-fluorocyclopropane-1-carboxamido)-3-methylbutanoyl)-4-hydroxy-N-(4-(4-methylthiazol-5-yl)benzyl)pyrrolidine-2-carboxamide], the “LRRK2 degradation (in words)” value in the assay with LRRK2^WT [1] is listed as “moderate LRRK2 degradation; also recorded: partial LRRK2 degradation”. Moreover, at LRRK2^WT [2] (24 h treatment), the “Dmax on WT MEFs” value was 50%. In addition, the “T1/2 of LRRK2^WT degradation” value on LRRK2^WT [2] (time course at 1000 nM, WT MEFs) was 5.1 h. Besides, the “Dmax on G2019S MEFs” value on LRRK2^G2019S (24 h treatment) came out at 43%.
By DC50 is commonly meant the midpoint of the concentration-degradation curve. A lower DC50 goes with a more potent degrader. The term Dmax denotes the greatest extent of degradation seen. As to `CNc1nc(Nc2ccc(C(=O)N3CCN(C[C@H]4CC[C@H](CSC(C)(C)[C@H](NC(=O)C5(F)CC5)C(=O)N5C[C@H](O)CC5C(=O)NCc5ccc(-c6scnc6C)cc5)CC4)CC3)cc2OC)ncc1Cl` (stereo partly drawn) [XL01126, (2S,4R)-1-((R)-3-((((1R,4R)-4-((4-(4-((5-chloro-4-(methylamino)pyrimidin-2-yl)amino)-3-methoxybenzoyl)piperazin-1-yl)methyl)cyclohexyl)methyl)thio)-2-(1-fluorocyclopropane-1-carboxamido)-3-methylbutanoyl)-4-hydroxy-N-(4-(4-methylthiazol-5-yl)benzyl)pyrrolidine-2-carboxamide], the “LRRK2 degradation (in words)” value with LRRK2^WT [1] was “almost complete LRRK2 degradation”. Also, the “mechanism of induced LRRK2 degradation (in words)” value in the assay on LRRK2^WT [1] (pretreatment with VH101, MLN4924, MG132, WT and LRRK2^G2019S MEFs) is given as “dependent on the proteasome pathway”. Moreover, at LRRK2^WT [2] (4 h treatment), the 50% degradation concentration (DC50) came to 32 nM, the “Dmax on WT MEFs” value is recorded as 80-90% and the Dmax is 82%. Also, on LRRK2^WT [2] (time course at 300 nM, WT MEFs), the maximal degradation (Dmax) at 0.3 µM worked out at 82% and the “T1/2 of LRRK2^WT degradation” value is on record as 1.2 h. On LRRK2^G2019S (4 h treatment), the DC50 worked out at 14 nM and the “Dmax on G2019S MEFs” value is recorded as 80-90%.
For `CNc1nc(Nc2ccc(C(=O)N3CCN(C[C@H]4CC[C@@H](CSC(C)(C)[C@H](NC(=O)C5(F)CC5)C(=O)N5C[C@H](O)CC5C(=O)NCc5ccc(-c6scnc6C)cc5)CC4)CC3)cc2OC)ncc1Cl` (some centres unmarked) [XL01134], in the assay with LRRK2^WT [1], the “LRRK2 degradation (in words)” value is reported as “hook effect”. At LRRK2^WT [2] (4 h treatment), it took 32 nM to reach half-maximal degradation (DC50), the “Dmax on WT MEFs” value was 58% and the Dmax was determined as 59%. The “T1/2 of LRRK2^WT degradation” value on LRRK2^WT [2] (time course at 300 nM, WT MEFs) was found to be 2.7 h. In addition, on LRRK2^G2019S (4 h treatment), the DC50 was found to be 7 nM and the “Dmax on G2019S MEFs” value was determined as 78%.

For the origin of these results see patent US20260001875A1, “AMINOPYRIMIDINYL DERIVATIVES FOR THE TREATMENT OF PARKINSON'S DISEASE” (UNIVERSITY OF DUNDEE, priority 2022, published 2026).
